In patent US11674967B2, “Method of identifying potential inhibitors of APO TNFα trimers” (UCB BIOPHARMA SRL, priority 2015, dated 2023):

How the values were obtained:
[1] = test system: TNFα-induced IL-8 production; assay: TNFα-induced IL-8 production by human monocytes; assay type: cell-based; details: TNFα ~1 ng/ml, 18 hours
Experimental: Venous blood from healthy donors was collected by venupuncture into sodium/heparin containing tubes (BD Biosciences). Peripheral blood mononuclear cells (PBMC) were isolated by density gradient centrifugation with Ficoll Paque (Amersham Biosciences). Briefly, 10 mL of blood was diluted 1:1 (v/v) with RPMI 1640 (Gibco) and carefully layered onto 20 mL Ficoll Paque. Cells were spun down for 30 minutes (min) at 470 g, the PBMC collected, washed once in RPMI 1640 and any remaining contaminating erythrocytes lysed in erythrocyte lysis buffer (1 g/L KHCO3, 8.3 g/L NH4Cl, 0.0372 g/L EDTA). Isolation of monocytes from the PBMC was performed using CD14+ Magnetic MicroBeads (Miltenyi Biotec) according to the manufacturer's instructions. Briefly, PBMC were resuspended in Dulbecco's modified Eagle's medium containing 5% BSA (Sigma) and 2 mM EDTA (Sigma) at 1×10^7 cells/ml. […] of CD14 MicroBeads per 10^7 total cells were incubated for 15 min at room temperature. The magnetic separation was performed using a LS column (Miltenyi Biotec). […]
Human IL-8 was measured in the cell culture supernatants using enzyme-linked immunosorbent assay (ELISA) kits from R&D Systems Ltd. according to the manufacturer's instructions. […] Plates were read at a wavelength of 630 nm with correction at 470 nm.

TNFα = TNFα (Homo sapiens, UniProt P01375); assay: Surface plasmon resonance kinetics of compound binding to immobilised TNFα
Chain of TNFα (P01375 77-233 limits assumed): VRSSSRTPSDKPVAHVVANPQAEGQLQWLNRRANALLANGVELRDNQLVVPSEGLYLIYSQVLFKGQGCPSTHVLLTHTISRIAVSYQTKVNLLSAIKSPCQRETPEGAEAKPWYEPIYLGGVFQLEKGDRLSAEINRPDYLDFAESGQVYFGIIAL
Experimental: Surface plasmon resonance was used to measure the association rate, the dissociation rate and the affinity of the compounds of formulae (3) and (15) for TNFα (FIGS. 12A and B). For the purpose of this study a Biacore T100/T200 was used.
TNFα was immobilised at pH5 to a level of 5-8 KRU onto a CMS sensor in HBS-P buffer (10 mM HEPES pH 7.4, 0.15 M NaCl, 0.005% Surfactant P20, BIAcore, GE Healthcare). The TNFα was then equilibrated in HBS-P with 5% DMSO for at least 5 hours. The samples were diluted from 10 mM stocks into DMSO matched buffer and left to solubilise for at least 5 hours. The flow rate was […].
This assay was performed by adding 4 or 5 concentrations of compound starting from a highest concentration of 25 μM for compound of formula (3) and 1 μM for compound of formula (15) and then serially diluting this sample. Background subtraction binding curves were analysed using the BIAevaluation software following standard procedures. Binding, affinity and kinetic parameters were determined using Biacore software. The kinetic data were fitted using the levenberg marquardt algorithm.

TNF-R1 = assay: HEK-Blue NF-κB reporter gene counterscreen, activating TNF-R1 antibody stimulus; assay type: cell-based, human; details: antibody 300 ng/mL
Experimental: (§1) Stimulation of HEK-293 cells by TNF-alpha leads to activation of the NF-kB pathway. The reporter cell line used to determine TNF alpha activity was purchased from Invivogen. HEK-Blue™ CD40L, is a stable transfectant expressing SEAP (secreted alkaline phosphatase) under the control of the IFN-beta minimal promoter fused to 5 NF-kB binding sites. Secretion of SEAP by these cells is stimulated in a concentration dependent manner by TNF-alpha (0.5 ng/ml), IL-1-beta (0.5 ng/ml) and an activating anti-human TNFR1 antibody (300 ng/ml).
(§2) Compounds were diluted from 10 mM DMSO stocks (final assay concentration 0.3%) to generate a 10 point 3 fold serial dilution curve (30,000 nM to 2 nM final concentration). They were mixed with stimulating ligand for 1 hour in a 384 well microtitre plate. Freshly thawed and washed cells were added to the compound/stimulus mixture and further incubated for 18 hours. SEAP activity was determined in the supernatant using the colorimetric substrate Quanti-Blue™ (Invivogen).
(§3) Percentage inhibitions for compound dilutions were calculated between a DMSO control and maximum inhibition (by excess control compound) and an IC50 calculated using xlfit (4 parameter logistic model) in Activity Base.
(§4) The specific activity of the compound of formula (15) against the TNF-alpha response was compared to that seen with the counterscreens (IL-1beta and anti-human TNFR1 antibody).

[2] = test system: TNFα-induced NF-κB activation; assay: HEK-Blue CD40L NF-κB reporter gene assay, TNFα stimulus; assay type: cell-based; details: TNFα 0.5 ng/mL
Experimental: as §1
as §2, with “Freshly thawed and washed cells were added to the compound/stimulus mixture and further incubated for 18 hours.” left out
as §3
C87 was preincubated with TNFα for 1 hour prior to the addition to HEK-293 cells stably transfected with SEAP under the control of NFκB. […] The assay was incubated overnight before inhibition was measured compared to 100% blocking by a control compound. […]

IL-1β = assay: HEK-Blue NF-κB reporter gene counterscreen, IL-1β stimulus; assay type: cell-based; details: IL-1β 0.5 ng/mL
Experimental: as §1, §2, §3, §4

Row | Compound | IC50 [1] [nM] | dissociation rate constant (koff) (TNFα) [e^−5 s^−1] | kon (TNFα) [e^3 M^−1 s^−1] | inhibition of activation of NF-κB by activating TNF-R1 antibody (TNF-R1) | IC50 [2] [nM] | inhibition of activation of NF-κB by IL-1β (IL-1β)
1 | Cc1ccc(C)c(Cn2c(C(O)c3ccncc3)nc3ccccc32)c1 (stereo not drawn) [Compound 3] | 454 | 9.46 | 2.668 | – | – | –
2 | Cc1ccc(C)c(Cn2c(C(O)c3ccncc3)nc3ccc(-c4cnn(C)c4)cc32)c1 (stereo not drawn) [Compound 15] | – | – | – | did not inhibit | 113 | did not inhibit
